According to ChEMBL document CHEMBL5260850, “The exploration of aza-quinolines as hematopoietic prostaglandin D synthase (H-PGDS) inhibitors with low brain exposure” (Bioorg Med Chem, 2020):
≈ marks a conversion by molar mass, not a printed value.

Assays:
[1] = Dissociation constant, pKa of the compound by UV spectroscopy or potentiometric analysis; type: physicochemical
[2] = Volume of distribution at steady state in mouse at 1 mg/kg, iv; type: ADME, organism-based; conditions: in vivo, read-out: Vdss
[3] = target: Albumin (Homo sapiens, UniProt P02768); test: Protein binding in human serum albumin by HPLC analysis; type: ADME, cell-free; conditions: read-out: PB (converted)
[4] = Ratio of drug level in brain to blood in mouse at 1 mg/kg, iv; type: ADME, organism-based; conditions: read-out: BBR
[5] = target: T1, Hematopoietic prostaglandin D synthase (Rattus norvegicus, UniProt O35543); test: Inhibition of H-PGDS in rat RBL cells assessed as reduction in A23187-induced PGD2 production pretreated for 30 mins followed by A23187 addition for 30 mins by RapidFire Mass spectrometry; type: cell-based
T1 sequence (O35543 whole entry): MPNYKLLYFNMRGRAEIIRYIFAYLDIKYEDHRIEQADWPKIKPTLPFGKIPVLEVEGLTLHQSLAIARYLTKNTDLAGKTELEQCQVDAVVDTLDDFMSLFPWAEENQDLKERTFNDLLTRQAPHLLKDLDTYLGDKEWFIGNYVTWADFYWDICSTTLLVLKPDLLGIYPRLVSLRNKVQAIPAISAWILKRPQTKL

[6] = Toxicity in chronic eccentric muscle damage C57BL/6N mouse model assessed as adverse effects at <=6 mg/kg, po administered for 60 days; type: organism-based; conditions: in vivo, 1440 h, time 60 day
[7] = Solubility of the compound in FaSSIF at pH 6.5 measured after 4 hrs by HPLC-UV analysis; type: ADME
[8] = Oral bioavailability in mouse at 3 mg/kg; type: ADME, organism-based; conditions: in vivo
[9] = Clearance in mouse at 1 mg/kg, iv; type: ADME, organism-based; conditions: in vivo
[10] = Toxicity in chronic eccentric muscle damage C57BL/6N mouse model assessed as seizure-like activity at >=10 mg/kg, po and measured after 4 days; type: organism-based; conditions: in vivo, 96 h, time 4 day
[11] = Terminal half life in mouse at 1 mg/kg, iv; type: ADME, organism-based; conditions: in vivo
[12] = Half life in mouse S9 fraction pretreated for 5 mins followed by incubation with NADP for 30 secs and measured upto 45 mins by LC-MS/MS analysis; type: ADME, subcellular; conditions: time 3030 sec
[13] = Dose normalized AUC in mouse at 3 mg/kg, po; type: ADME, organism-based; design: unit not given here; conditions: in vivo
[14] = target: Hematopoietic prostaglandin D synthase (Homo sapiens, UniProt O60760); test: Inhibition of human H-PGDS expressed in Escherichia coli BL21 DE3 cells assessed as reduction in PGD2 production using PGH2 as substrate by RapidFire High Throughput Mass spectrometry
[15] = Apparent permeability, Papp of the compound at pH 7.4 incubated for 3 hrs by AMP based liquid chromatography; type: ADME; conditions: not told
[16] = Half life in mouse liver microsomes pretreated for 5 mins followed by incubation with NADP for 30 secs and measured upto 45 mins by LC-MS/MS analysis; type: ADME, Microsome; conditions: time 3030 sec

Sequence of Hematopoietic prostaglandin D synthase (Homo sapiens, UniProt O60760) (O60760 whole entry): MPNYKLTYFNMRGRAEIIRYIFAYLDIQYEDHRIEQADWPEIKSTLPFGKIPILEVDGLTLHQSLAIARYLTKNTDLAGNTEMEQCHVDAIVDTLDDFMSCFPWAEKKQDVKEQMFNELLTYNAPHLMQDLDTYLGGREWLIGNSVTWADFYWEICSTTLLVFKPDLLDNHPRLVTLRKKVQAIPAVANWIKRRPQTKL
Sequence of Albumin (P02768 whole entry): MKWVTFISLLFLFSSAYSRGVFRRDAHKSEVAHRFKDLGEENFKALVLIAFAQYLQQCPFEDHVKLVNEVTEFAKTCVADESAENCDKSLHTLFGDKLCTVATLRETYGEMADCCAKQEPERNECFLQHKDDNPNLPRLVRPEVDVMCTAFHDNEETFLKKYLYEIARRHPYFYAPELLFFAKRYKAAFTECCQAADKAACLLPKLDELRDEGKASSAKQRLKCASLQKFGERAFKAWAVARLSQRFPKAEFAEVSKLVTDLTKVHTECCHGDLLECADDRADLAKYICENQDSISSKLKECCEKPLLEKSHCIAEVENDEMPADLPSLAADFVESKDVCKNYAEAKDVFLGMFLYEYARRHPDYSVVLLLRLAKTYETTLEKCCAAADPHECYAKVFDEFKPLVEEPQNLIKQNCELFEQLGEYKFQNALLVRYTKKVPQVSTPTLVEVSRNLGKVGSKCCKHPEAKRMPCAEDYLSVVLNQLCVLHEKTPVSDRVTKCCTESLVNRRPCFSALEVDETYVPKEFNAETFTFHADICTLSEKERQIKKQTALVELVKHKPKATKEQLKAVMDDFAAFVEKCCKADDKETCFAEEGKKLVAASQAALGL

| SMILES | pKa [1] | Vd [2] [L/kg] | fraction unbound [3] | Kp [4] | EC50 [5] [nM] | Activity [6] | solubility at 4 h [7] [µg/mL] | bioavailability [8] [%] | clearance [9] [mL/min/kg] | Activity [10] | beta t1/2 ([11]; iv, 1 mg/kg) [h] | half-life [12] [min] | AUC/dose [13] | IC50 [14] [nM] | Papp at 3 h [15] [×10⁻⁶ cm/s] | half-life [16] [min] | half-life ([11]; read-out: beta t1/2 (converted)) [min] |
| --- | --- | --- | --- | --- | --- | --- | --- | --- | --- | --- | --- | --- | --- | --- | --- | --- | --- |
| CC(C)(O)[C@H]1CC[C@H](NC(=O)c2cnc3cc(OC(F)F)ccc3c2)CC1 | 2.43 | 1.7 | 0.12 | 0.59 | 160 | Non-Toxic | 70 (≈ 185 µM) | 61 | 5.6 | Toxic | 3.8 | > 180 |  |  |  |  |  |
| CC(C)(O)[C@H]1CC[C@H](NC(=O)c2cnc3cc(N4CC(F)C4)ncc3c2)CC1 |  |  | 0.27 |  | 170 |  | 13 (≈ 33.6 µM) |  |  |  |  | > 180 | 19.3 | 12 |  |  |  |
| CC(C)(O)[C@H]1CC[C@H](NC(=O)c2cnc3cc(N4CCC4)ncc3c2)CC1 |  |  | 0.21 |  | 24 |  | 11 (≈ 29.9 µM) |  |  |  |  | 161 | 41 | 3.9 | 7.8 |  |  |
| C[C@]1(O)C[C@@H](NC(=O)c2cnc3cc(N4CCC4)ncc3c2)C1 |  |  | 0.48 |  | 450 |  | 460 (≈ 1470 µM) |  |  |  |  | > 180 | 46.9 | 56 | 3.8 |  |  |
| C[C@H]1CCN1c1ccc2cc(C(=O)N[C@H]3CC[C@H](C(C)(C)O)CC3)cnc2n1 |  |  | 0.22 |  | 14 |  | 270 (≈ 706 µM) |  |  |  |  | > 180 | 73.7 | 4.4 | 2.5 |  |  |
| COc1cc2ncc(C(=O)N[C@H]3CC[C@H](C(C)(C)O)CC3)cc2cn1 | < 2 |  | 0.33 |  | 190 |  | 85 (≈ 248 µM) |  |  |  |  |  | 104 | 45 | 6.1 | > 180 |  |
| CC(C)(O)[C@H]1CC[C@H](NC(=O)c2cnc3nc(N4CCC4)ccc3c2)CC1 |  |  | 0.2 |  | 75 |  | 3 (≈ 8.14 µM) |  |  |  |  | > 180 | 72.5 | 5.3 | 2.3 |  |  |
| COc1ccc2cc(C(=O)N[C@H]3CC[C@H](C(C)(C)O)CC3)cnc2n1 | 2.58 |  | 0.27 |  | 150 |  | 24 (≈ 69.9 µM) |  |  |  |  |  | 64.9 | 30 |  | > 180 |  |
| CC(C)(O)[C@H]1CC[C@H](NC(=O)c2cnc3cc(C4CC4)ncc3c2)CC1 |  | 1.6 | 0.16 | 0.17 | 94 |  | 27 (≈ 76.4 µM) | 130 | 22 |  |  | > 180 | 1040 | 14 | 16.5 |  | 66 |
| O=C(N[C@H]1CCNC1=O)c1cnc2cc(N3CCC3)ncc2c1 |  |  | 0.41 |  | 110 |  | 400 (≈ 1280 µM) |  |  |  |  | > 180 | 250 | 12 | < 1 |  |  |
